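Each compound was tested at five concentrations against cells in 96-well plates for 48 hours. At the TGI there is no net growth.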 Where a SMILES comes first, the peptide text is derived from it. The star is where a group is joined. X36 = O=C(c1ccc(-c2ccc(Cl)cc2Cl)o1)*
Columns and labels:
Test in all cases: NCI tumour cell line growth inhibition, 48 h
SK-MEL-5 melanoma = test system: SK-MEL-5 melanoma
786-0 renal = test system: 786-0 renal
OVCAR-3 ovarian = test system: OVCAR-3 ovarian
SF-268 CNS = test system: SF-268 CNS
SF-539 CNS = test system: SF-539 CNS
IGROV1 ovarian = test system: IGROV1 ovarian
SK-MEL-2 melanoma = test system: SK-MEL-2 melanoma
K-562 leukemia = test system: K-562 leukemia
SK-OV-3 ovarian = test system: SK-OV-3 ovarian
MALME-3M melanoma = test system: MALME-3M melanoma
SN12C renal = test system: SN12C renal
OVCAR-8 ovarian = test system: OVCAR-8 ovarian

SMILES	TGI (SK-MEL-5 melanoma) [µM]	TGI (786-0 renal) [µM]	TGI (OVCAR-3 ovarian) [µM]	TGI (SF-268 CNS) [µM]	TGI (SF-539 CNS) [µM]	TGI (IGROV1 ovarian) [µM]	TGI (SK-MEL-2 melanoma) [µM]	TGI (K-562 leukemia) [µM]	TGI (SK-OV-3 ovarian) [µM]	TGI (MALME-3M melanoma) [µM]	TGI (SN12C renal) [µM]	TGI (OVCAR-8 ovarian) [µM]
CC(=O)O[C@H]1CC[C@@]2(C)C(=CC[C@H]3[C@@H]4C[C@H](N5CCCC5)[C@H](OC(C)=O)[C@@]4(C)CC[C@@H]32)C1	54.8	> 100	> 100	> 100	> 65.3	> 100	> 100	> 67.4	> 100	> 74.3	> 100	> 100
Cc1ccc2c(=O)cc(-c3cccs3)[nH]c2n1	> 81.9	> 100	> 100	> 100	33.1	> 100	> 82.7	> 100	> 100	> 100	> 100	> 100
Cc1ccc2c(c1)[nH]c1cc(C(F)(F)F)ccc1[p+]2=O (configuration not stated)	34	> 100	> 100	> 100	> 100	> 100	> 100	66.4	> 100	> 100	> 100	> 100
CCC(C)C(NC(=O)CNC(=O)C(Cc1ccccc1)NC(=O)C1CCCN1C(=O)c1ccc(-c2ccc(Cl)cc2Cl)o1)C(=O)OC (configuration not stated) (X36-PFGI-OMe; configuration not given here)	45.6	> 100	> 100	> 100	86.6	> 100	> 100	> 100	> 100	> 100	82.6	> 100
NC(=O)NNC(=O)c1nc[nH]c1[N+](=O)[O-]	> 100	> 100	> 100	> 100	> 100	> 100	> 100	> 100	> 100	> 100	> 100	> 100
COc1ccc(Nc2nc(NS(=O)(=O)c3cc(C)c(Cl)cc3S)n[nH]2)cc1	> 100	> 100	> 100	> 100	> 100	> 100	> 100	> 100	> 100	> 100	> 100	> 100

Reference: PubChem BioAssay (NCI)
